biological target: T1, IκBα ubiquitinating enzyme (SCF complex: ROC1, Cullin1, Skp1, His-TrCP1; with E1, UbcH5b) (Homo sapiens, UniProt P62877+P63208+Q13616+Q9Y297); experiment: Measurement of ubiquitinating enzyme activity (IκBα ubiquitination, time-resolved fluorescence with Eu(K)-labeled ubiquitin and XL665-labeled anti-GST antibody); assay type: biochemical; details: enzyme activity inhibition test, method (1), Table 5; read-out: EVALUATION
T1 construct: His (polyhistidine); made in house; host or cells: insect cells (baculovirus) for the SCF complex and His-E1; E. coli for His-UBCH5b
T1 sequence (Q9Y297 whole entry): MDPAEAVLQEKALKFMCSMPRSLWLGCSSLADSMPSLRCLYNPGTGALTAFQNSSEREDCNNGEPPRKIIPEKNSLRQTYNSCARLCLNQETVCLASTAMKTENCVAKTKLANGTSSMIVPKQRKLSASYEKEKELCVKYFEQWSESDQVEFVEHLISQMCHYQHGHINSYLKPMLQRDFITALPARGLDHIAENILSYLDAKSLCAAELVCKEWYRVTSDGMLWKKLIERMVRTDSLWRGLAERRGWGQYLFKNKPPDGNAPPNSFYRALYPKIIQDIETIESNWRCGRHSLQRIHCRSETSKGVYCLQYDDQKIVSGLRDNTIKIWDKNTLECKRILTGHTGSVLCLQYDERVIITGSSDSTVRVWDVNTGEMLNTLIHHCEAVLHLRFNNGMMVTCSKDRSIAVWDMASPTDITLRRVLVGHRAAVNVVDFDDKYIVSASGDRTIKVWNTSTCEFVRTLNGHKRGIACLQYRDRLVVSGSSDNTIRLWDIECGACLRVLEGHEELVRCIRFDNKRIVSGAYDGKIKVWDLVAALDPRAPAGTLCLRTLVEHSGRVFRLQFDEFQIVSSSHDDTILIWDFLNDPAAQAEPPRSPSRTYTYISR
T1 sequence (Q13616 whole entry): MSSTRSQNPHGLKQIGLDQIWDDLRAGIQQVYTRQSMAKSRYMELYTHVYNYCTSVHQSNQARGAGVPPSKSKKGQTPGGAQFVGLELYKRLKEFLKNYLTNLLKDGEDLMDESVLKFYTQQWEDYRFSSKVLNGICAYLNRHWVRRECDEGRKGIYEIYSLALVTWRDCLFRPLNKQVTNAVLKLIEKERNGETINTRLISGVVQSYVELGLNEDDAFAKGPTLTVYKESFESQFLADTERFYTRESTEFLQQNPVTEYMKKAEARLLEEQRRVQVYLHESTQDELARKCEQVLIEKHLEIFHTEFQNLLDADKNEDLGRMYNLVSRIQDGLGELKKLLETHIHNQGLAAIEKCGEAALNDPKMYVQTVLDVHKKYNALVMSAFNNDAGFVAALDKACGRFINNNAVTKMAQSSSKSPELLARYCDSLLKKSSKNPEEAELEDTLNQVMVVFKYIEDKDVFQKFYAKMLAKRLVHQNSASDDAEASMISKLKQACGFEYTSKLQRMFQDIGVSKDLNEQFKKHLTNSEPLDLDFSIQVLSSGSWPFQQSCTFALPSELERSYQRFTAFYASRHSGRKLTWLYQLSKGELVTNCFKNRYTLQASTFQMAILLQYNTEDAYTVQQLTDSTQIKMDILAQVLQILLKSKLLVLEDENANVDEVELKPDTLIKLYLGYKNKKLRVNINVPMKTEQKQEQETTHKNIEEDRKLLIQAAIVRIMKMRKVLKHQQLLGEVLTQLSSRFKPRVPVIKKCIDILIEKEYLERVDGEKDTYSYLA
T1 sequence (P63208 whole entry): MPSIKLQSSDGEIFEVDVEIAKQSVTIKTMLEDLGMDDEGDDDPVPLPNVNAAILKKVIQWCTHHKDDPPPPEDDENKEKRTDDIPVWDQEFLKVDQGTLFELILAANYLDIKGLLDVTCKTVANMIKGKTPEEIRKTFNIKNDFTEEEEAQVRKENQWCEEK
T1 sequence (P62877 whole entry): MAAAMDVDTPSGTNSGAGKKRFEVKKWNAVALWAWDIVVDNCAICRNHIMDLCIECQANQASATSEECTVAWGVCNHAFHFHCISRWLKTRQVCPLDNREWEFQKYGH
Protocol: Method 1: Measurement of ubiquitinating enzyme activity
A recombinant vector His-UBCH5b containing a polyhistidine tag (His) and UBCH5b was prepared. E. coli was transformed with the vector, the protein was expressed, and affinity purification was carried out using Ni-NTA agarose (Qiagen). Four types of recombinant baculoviruses (ROC1, Cullin1, Skp1, and His-TrCP1) were prepared for the SCF complex protein, insect cells were infected in quadruplicate for expression, and affinity purification was carried out using Ni-NTA agarose. Recombinant baculoviruses His-IKKβ, His-E1 were prepared. The insect cells were infected with each of those for expression, and affinity purification was carried out using Ni-NTA agarose. A recombinant vector GST-IκBα was prepared by fusing glutathione-S-transferase tag (GST) and IκBα, E. coli was transformed with the vector for the protein expression, and affinity purification was carried out using glutathione sepharose (Amersham Biosciences). Genetic transformants were prepared by PCR amplification followed by recombination, all of which were based on published human-derived sequences.
Phosphorylation reaction of IκBα was performed by incubating the above-mentioned assay buffer (50 mM Tris-HCl (pH7.4), 2 mM ATP, 5 mM MgCl2, 0.5 mM DTT, 0.1% BSA) containing IκBα and IKKβ at room temperature for 1 hour. Ubiquitination reactions were carried out as follows. Compound samples at various concentrations, ubiquitin, Eu (K)-labeled ubiquitin, E1, UbcH5b, and SCF complex were added to phosphorylated IκBα, and then this was incubated at room temperature for 30 minutes. The reaction was terminated by adding EDTA, the above-mentioned revelation buffer (100 mM phosphate buffer (pH7.0), 0.5 M KF, 0.1% BSA) containing XL665-labeled anti-GST antibody was added and this was left to stand at room temperature for 2 hours. Measurements were made using ARVO-HTS (Perkin Elmer). The ratio of fluorescence intensities at 620 nm and 665 nm (Em 665 nm/Em 620 nm x 10,000) with excitation light at 337 nm was measured.
The ubiquitination level without the addition of a compound sample was used as the control value, and the level in the absence of SCF complex was used as the blank value for the assays. Inhibitory activities of the compounds were indicated as % inhibition = 100 - (value with a compound sample added - blank value) / (control value - blank value) x 100. IC50 was indicated as the concentration of the compound showing 50% inhibition. Eu (K)-labeled ubiquitin, XL665-labeled anti-GST antibody, and XL665-labeled anti-His antibody were purchased from CIS bio international. Costar solid black plates (96 wells) were used for the assays.

Row | IC50 [µM] | Compound
1 | < 10 | CC1=NN(c2ccc(S(N)(=O)=O)cc2)C(=O)C1=Cc1cccc2cc[nH]c12 [Compound 151]
2 | < 40 | COc1cc(/C=C2\C(=O)N(c3cccc(S(N)(=O)=O)c3)N=C2C)ccc1OCc1c(C)noc1C [Compound 153]
3 | < 40 | CCOC(=O)c1ccc(COc2ccc(/C=C3\C(=O)N(c4cccc(S(N)(=O)=O)c4)N=C3C)cc2OC)o1 [Compound 155]
4 | 10 to 20 | COc1cc(/C=C2\C(=O)N(c3ccc(S(N)(=O)=O)cc3)N=C2C)ccc1OCn1nnc2ccccc21 [Compound 156]
5 | 10 to 20 | COc1cc(/C=C2\C(=O)N(c3cccc(S(N)(=O)=O)c3)N=C2C)ccc1OCn1nnc2ccccc21 [Compound 157]
6 | < 40 | COc1cc(/C=C2\C(=O)N(c3ccc(S(N)(=O)=O)cc3)N=C2C)ccc1OCc1c(C)noc1C [Compound 158]
7 | 10 to 20 | COc1cc(/C=C2\C(=O)N(c3ccc(S(N)(=O)=O)cc3)N=C2C)ccc1OCC1CC1 [Compound 159]
8 | < 40 | COc1cc(/C=C2\C(=O)N(c3cccc(S(N)(=O)=O)c3)N=C2C)ccc1OCC1CC1 [Compound 160]
9 | < 40 | COc1cc(C=C2C(=O)N(c3ccc(S(N)(=O)=O)cc3)N=C2C)ccc1OCC1CCCCC1 [Compound 161]
10 | < 40 | CC1=NN(c2ccc(S(=O)(=O)N3CCC(O)CC3)cc2)C(=O)/C1=C\c1ccc2c(c1)OCO2 [Compound 162]
11 | < 10 | CC1=NN(c2cccc(S(N)(=O)=O)c2)C(=O)/C1=C\c1ccc(N2CCN(c3ccccc3)CC2)cc1 [Compound 170]
12 | 10 to 20 | CC1=NN(c2ccc(S(N)(=O)=O)cc2)C(=O)/C1=C\c1ccc(N2CCC(CO)CC2)cc1 [Compound 171]
13 | < 40 | CC1=NN(c2ccc(S(N)(=O)=O)cc2)C(=O)C1=Cc1ccc(N2CCCC2CO)cc1 (stereo not shown) [Compound 172]
14 | < 40 | CC1=NN(c2cccc(S(N)(=O)=O)c2)C(=O)/C1=C\c1ccc(N2CCC(CO)CC2)cc1 [Compound 173]
15 | < 40 | CC1=NN(c2cccc(S(N)(=O)=O)c2)C(=O)/C1=C\c1ccc(N2CCCC2CO)cc1 (stereo not shown) [Compound 174]
16 | < 10 | CC1=NN(c2ccc(S(N)(=O)=O)cc2)C(=O)/C1=C\c1ccc(N2CCN(c3ccc(F)cc3)CC2)cc1 [Compound 176]
17 | 10 to 20 | CC1=NN(c2cccc(S(N)(=O)=O)c2)C(=O)/C1=C\c1ccc(N2CCN(c3ccc(F)cc3)CC2)cc1 [Compound 177]
18 | < 40 | CC1=NN(c2cccc(S(N)(=O)=O)c2)C(=O)/C1=C\c1ccc(N2CCC(O)C2)cc1 (stereo not shown) [Compound 178]
19 | 10 to 20 | CC1=NN(c2ccc(S(N)(=O)=O)cc2)C(=O)C1=Cc1ccc(N2CCNCC2)cc1 [Compound 183]
20 | 10 to 20 | CC1=NN(c2cccc(S(N)(=O)=O)c2)C(=O)/C1=C\c1ccc(N2CCNCC2)cc1 [Compound 184]
21 | < 10 | COc1cc(C=C2C(=O)N(c3ccc(C(C)(C)C)cc3)N=C2C)ccc1O [Compound 196]

Row | IC50 [µM] | Compound
22 | < 40 | COc1cc(/C=C2/C(=O)N(c3ccccc3F)N=C2C)ccc1O [Compound 197]
23 | < 40 | COc1cc(/C=C2/C(=O)N(c3cccc(N)c3)N=C2C)ccc1O [Compound 198]
24 | 10 to 20 | COc1cc(/C=C2\C(=O)N(c3cccc(S(N)(=O)=O)c3)N=C2C)ccc1OS(=O)(=O)c1ccc(C)cc1 [Compound 203]
25 | < 40 | CC1=NN(c2ccccc2)C(=O)/C1=C\c1ccc(OCC(=O)Nc2ccccc2)cc1 [Compound 205]
26 | < 40 | CC1=NN(c2ccccc2)C(=O)/C1=C\c1ccc(OCC(=O)N(C)C)cc1 [Compound 206]
27 | 10 to 20 | CC1=NN(c2ccc(S(N)(=O)=O)cc2)C(=O)/C1=C\c1ccc(OCC(=O)N(C)C)cc1 [Compound 209]
28 | < 40 | CC1=NN(c2ccccc2)C(=O)/C1=C\c1ccc(OCCCN(C)C)cc1 [Compound 217]
29 | < 40 | CC1=NN(c2ccc(S(N)(=O)=O)cc2)C(=O)/C1=C\c1ccccc1O [Compound 219]
30 | 10 to 20 | CC1=NN(c2ccc(S(N)(=O)=O)cc2)C(=O)/C1=C\c1ccc(OS(=O)(=O)c2ccc(C(C)(C)C)cc2)cc1 [Compound 221]
31 | 10 to 20 | CC1=NN(c2ccc(S(N)(=O)=O)cc2)C(=O)C1=Cc1cccc(C(=O)O)c1 [Compound 222]
32 | 10 to 20 | CC1=NN(c2ccc(S(N)(=O)=O)cc2)C(=O)/C1=C\c1ccc(C(=O)O)cc1 [Compound 223]
33 | < 10 | CC1=NN(c2ccc(S(N)(=O)=O)cc2)C(=O)C1=Cc1ccc(NC(=O)c2ccco2)cc1 [Compound 231]
34 | < 40 | COCC1=NN(c2ccc(C(=O)O)cc2)C(=O)C1=Cc1ccc(N2CCC(O)CC2)s1 [Compound 240]
35 | < 40 | COCC1=NN(c2ccc(C(=O)O)cc2)C(=O)/C1=C\c1ccc(N2CCN(C)CC2)cc1 [Compound 241]
36 | < 40 | O=C(O)c1ccc(N2N=C(c3ccoc3)C(=Cc3ccc(N4CCC(O)CC4)s3)C2=O)cc1 [Compound 251]
37 | < 40 | CC1=NN(c2ccc(C(=O)O)cc2)C(=O)/C1=C\c1nccs1 [Compound 257]
38 | 10 to 20 | O=C(O)c1ccc(N2N=C(Cc3ccccc3)/C(=C/c3ccc4ccccc4c3)C2=O)cc1 [Compound 264]
39 | 10 to 20 | O=C(O)c1ccc(N2N=C(Cc3ccccc3)/C(=C/c3ccc(N4CCCC4)cc3)C2=O)cc1 [Compound 269]
40 | < 40 | O=C(O)c1ccc(N2N=C(Cc3ccccc3)/C(=C/c3nccs3)C2=O)cc1 [Compound 270]
41 | 10 to 20 | O=C(O)c1ccc(N2N=C(Cc3ccccc3)/C(=C/c3ccc(-n4cccn4)cc3)C2=O)cc1 [Compound 275]
42 | < 40 | O=C(O)c1ccc(N2N=C(Cc3ccccc3)/C(=C/c3ccc(-n4cncn4)cc3)C2=O)cc1 [Compound 276]

Row | IC50 [µM] | Compound
43 | < 40 | COc1ccc(C2=NN(c3ccc(C(=O)O)cc3)C(=O)/C2=C\c2cccc3nccnc23)cc1OC [Compound 278]
44 | < 40 | COc1ccc(C2=NN(c3ccc(C(=O)O)cc3)C(=O)/C2=C\c2ccc(-n3ccnc3)cc2)cc1OC [Compound 282]
45 | 10 to 20 | COc1ccc(C2=NN(c3ccc(C(=O)O)cc3)C(=O)C2=Cc2ccc(N3CCN(C)CC3)cc2)cc1OC [Compound 285]
46 | 10 to 20 | COc1cc(/C=C2\C(=O)N(c3ccc(C(=O)O)cc3)N=C2c2ccncc2)ccc1O [Compound 286]
47 | 10 to 20 | O=C(O)c1ccc(N2N=C(c3ccncc3)C(=Cc3ccc4c(c3)OCCO4)C2=O)cc1 [Compound 288]
48 | 10 to 20 | COc1cc(/C=C2\C(=O)N(c3ccc(C(=O)O)cc3)N=C2c2ccccn2)ccc1OCc1ccccc1 [Compound 289]
49 | 10 to 20 | O=C(O)c1ccc(N2N=C(c3ccccn3)/C(=C/c3ccc4c(c3)OCCO4)C2=O)cc1 [Compound 292]
50 | < 40 | O=C(O)c1ccc(N2N=C(c3ccccn3)/C(=C/c3ccc(N4CCC(O)CC4)s3)C2=O)cc1 [Compound 293]
51 | < 40 | O=C(O)c1ccc(N2N=C(c3ccccn3)/C(=C/c3ccc(-n4cccn4)cc3)C2=O)cc1 [Compound 294]
52 | < 40 | O=C(O)c1ccc(N2N=C(c3cccnc3)/C(=C/c3ccc(N4CCCC4)cc3)C2=O)cc1 [Compound 309]
53 | 10 to 20 | O=C(O)c1ccc(N2N=C(c3cccnc3)/C(=C/c3ccc4c(c3)OCCO4)C2=O)cc1 [Compound 310]
54 | < 10 | O=C(O)c1ccc(N2N=C(C3CC3)/C(=C/c3ccc(-n4ccnc4)cc3)C2=O)cc1 [Compound 318]
55 | < 10 | COCC1=NN(c2ccc(C(=O)O)cc2)C(=O)/C1=C\c1cccc2nccnc12 [Compound 327]
56 | < 10 | O=C(O)c1ccc(N2N=C(c3ccoc3)/C(=C/c3ccc4c(c3)OCCO4)C2=O)cc1 [Compound 330]
57 | 10 to 20 | CC1=NN(c2ccc(C(=O)O)cc2)C(=O)/C1=C\c1cccc2nccnc12 [Compound 331]
58 | 10 to 20 | COc1cc(/C=C2\C(=O)N(c3ccc(C(=O)O)cc3)N=C2c2ccc(OC)c(OC)c2)ccc1O [Compound 332]
59 | 10 to 20 | COC(=O)N1CCN(c2ccc(C=C3C(=O)N(c4ccc(C(=O)O)cc4)N=C3c3ccccn3)cc2)CC1 [Compound 335]
60 | 10 to 20 | CCCCC1=NN(c2ccc(C(=O)O)cc2)C(=O)/C1=C\c1ccc2ccccc2c1 [Compound 336]
61 | 10 to 20 | COc1cc(/C=C2\C(=O)N(c3ccc(C(=O)O)cc3)N=C2c2cccnc2)ccc1O [Compound 337]

— EP1900728A1 (Genecare Research Institute Co., Ltd, priority 2005, dated 2006)
